These results are taken from US20250170248A1, “SMARCA DEGRADERS AND USES THEREOF” (Kymera Therapeutics, Inc., priority 2021, published 2025).

Usually Dmax stands for the greatest extent of degradation seen. One may read the DC50 as the concentration at which degradation of the target reaches its halfway point.

What all share (format): cell-based
For assay [1], the target named is T1, SMARCA2 (Homo sapiens, UniProt P51531). The experiment in a line: MSD SMARCA2 degradation in A549 cell line. As to conditions: 24 h; for Dmax: A549, A549 cells; for DC50: A549 cells, read-out: SMARCA2 MSD A549 degradation 24 h: Average external-Abs DC50. In short, it runs like this: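 A549 cells treated 24 h with compound, 3-fold series from 1000 nM. Lysates captured on MSD plates and SMARCA2 quantified with anti-SMARCA2 and SULFO-TAG secondary antibodies (electrochemiluminescence). DC50 and Dmax (% degradation at 24 h) reported as letter bins.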
T1 sequence (P51531 whole entry): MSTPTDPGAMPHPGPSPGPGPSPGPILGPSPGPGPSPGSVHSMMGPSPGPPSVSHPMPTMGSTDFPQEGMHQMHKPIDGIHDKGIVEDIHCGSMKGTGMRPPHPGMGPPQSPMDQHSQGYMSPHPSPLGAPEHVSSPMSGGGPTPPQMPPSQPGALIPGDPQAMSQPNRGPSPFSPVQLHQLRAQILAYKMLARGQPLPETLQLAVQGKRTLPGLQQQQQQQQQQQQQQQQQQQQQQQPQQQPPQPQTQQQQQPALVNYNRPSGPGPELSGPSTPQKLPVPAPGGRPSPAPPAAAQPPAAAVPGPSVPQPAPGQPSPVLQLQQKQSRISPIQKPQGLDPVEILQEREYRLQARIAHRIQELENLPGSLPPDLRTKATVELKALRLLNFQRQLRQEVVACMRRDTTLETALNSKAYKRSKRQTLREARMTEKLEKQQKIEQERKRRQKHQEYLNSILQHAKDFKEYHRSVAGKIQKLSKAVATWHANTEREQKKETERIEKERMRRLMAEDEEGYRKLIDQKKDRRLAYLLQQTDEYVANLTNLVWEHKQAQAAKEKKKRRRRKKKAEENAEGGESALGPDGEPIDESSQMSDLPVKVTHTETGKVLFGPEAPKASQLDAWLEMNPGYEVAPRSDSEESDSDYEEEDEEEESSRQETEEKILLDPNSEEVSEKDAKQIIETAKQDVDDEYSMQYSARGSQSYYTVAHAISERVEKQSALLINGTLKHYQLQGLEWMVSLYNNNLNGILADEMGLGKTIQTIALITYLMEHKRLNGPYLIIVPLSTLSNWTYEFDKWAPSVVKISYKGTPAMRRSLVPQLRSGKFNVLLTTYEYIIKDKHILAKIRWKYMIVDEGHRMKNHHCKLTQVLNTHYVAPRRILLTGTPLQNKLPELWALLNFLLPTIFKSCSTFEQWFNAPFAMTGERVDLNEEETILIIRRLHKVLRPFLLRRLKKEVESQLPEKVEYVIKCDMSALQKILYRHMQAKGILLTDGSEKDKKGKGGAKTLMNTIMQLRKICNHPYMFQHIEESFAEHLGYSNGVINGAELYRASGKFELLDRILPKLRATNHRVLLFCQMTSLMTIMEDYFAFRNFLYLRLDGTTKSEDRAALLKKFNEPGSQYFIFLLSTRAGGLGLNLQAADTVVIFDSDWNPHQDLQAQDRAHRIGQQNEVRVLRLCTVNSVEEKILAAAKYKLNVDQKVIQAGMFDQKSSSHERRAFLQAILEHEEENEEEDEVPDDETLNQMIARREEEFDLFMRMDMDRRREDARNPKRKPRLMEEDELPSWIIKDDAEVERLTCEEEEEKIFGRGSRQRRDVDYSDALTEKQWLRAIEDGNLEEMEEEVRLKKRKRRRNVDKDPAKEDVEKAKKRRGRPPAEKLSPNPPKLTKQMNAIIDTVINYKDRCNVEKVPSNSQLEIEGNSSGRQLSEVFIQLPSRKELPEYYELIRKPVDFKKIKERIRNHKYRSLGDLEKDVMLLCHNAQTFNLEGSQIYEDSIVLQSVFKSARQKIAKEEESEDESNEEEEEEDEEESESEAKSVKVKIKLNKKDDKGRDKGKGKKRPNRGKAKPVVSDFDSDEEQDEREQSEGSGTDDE

Assay [2] addresses T2, SMARCA4 (Homo sapiens, UniProt P51532).
T2 construct: SMARCA2/SMARCA4 protein degradation selectivity in MV4-11 cells; endogenous in cells; host or cells: MV4-11
Description: SMARCA4 Western blot degradation in MV4-11 cells. As to conditions: 24 h; for Dmax: MV4-11, MV4-11 cells, read-out: SMARCA4 MSD MV411 degradation 24 h: average Dmax %; for DC50: MV4-11 cells, read-out: SMARCA4 MSD MV411 degradation 24 h: Mean external-Abs DC50. The method in brief: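 24 h compound exposure, MV4-11; RIPA lysates → SDS-PAGE → NC membrane; anti-SMARCA2/BRM, anti-BRG1, β-actin loading control; LI-COR fluorescence read. DC50 and Dmax at 24 h reported as letter bins.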

Assay [3] deals with T1, SMARCA2. Description: SMARCA2 Western blot degradation in MV4-11 cells. The arrangement: SMARCA2/SMARCA4 protein degradation selectivity in MV4-11 cells; endogenous in cells; host or cells: MV4-11. As to conditions: for Dmax: MV4-11, MV4-11 cells, read-out: SMARCA2 MSD MV411 degradation 24 h: average Dmax %; for Dmax / DC50: 24 h; for DC50 / Selectivity in MV411: MV4-11 cells; for DC50: read-out: SMARCA2 MSD MV411 degradation 24 h: Mean external-Abs DC50; for Selectivity in MV411: SMARCA2/4 selectivity.

Where only a bound is given, the exact number is not on record here.

T2 sequence (P51532 whole entry): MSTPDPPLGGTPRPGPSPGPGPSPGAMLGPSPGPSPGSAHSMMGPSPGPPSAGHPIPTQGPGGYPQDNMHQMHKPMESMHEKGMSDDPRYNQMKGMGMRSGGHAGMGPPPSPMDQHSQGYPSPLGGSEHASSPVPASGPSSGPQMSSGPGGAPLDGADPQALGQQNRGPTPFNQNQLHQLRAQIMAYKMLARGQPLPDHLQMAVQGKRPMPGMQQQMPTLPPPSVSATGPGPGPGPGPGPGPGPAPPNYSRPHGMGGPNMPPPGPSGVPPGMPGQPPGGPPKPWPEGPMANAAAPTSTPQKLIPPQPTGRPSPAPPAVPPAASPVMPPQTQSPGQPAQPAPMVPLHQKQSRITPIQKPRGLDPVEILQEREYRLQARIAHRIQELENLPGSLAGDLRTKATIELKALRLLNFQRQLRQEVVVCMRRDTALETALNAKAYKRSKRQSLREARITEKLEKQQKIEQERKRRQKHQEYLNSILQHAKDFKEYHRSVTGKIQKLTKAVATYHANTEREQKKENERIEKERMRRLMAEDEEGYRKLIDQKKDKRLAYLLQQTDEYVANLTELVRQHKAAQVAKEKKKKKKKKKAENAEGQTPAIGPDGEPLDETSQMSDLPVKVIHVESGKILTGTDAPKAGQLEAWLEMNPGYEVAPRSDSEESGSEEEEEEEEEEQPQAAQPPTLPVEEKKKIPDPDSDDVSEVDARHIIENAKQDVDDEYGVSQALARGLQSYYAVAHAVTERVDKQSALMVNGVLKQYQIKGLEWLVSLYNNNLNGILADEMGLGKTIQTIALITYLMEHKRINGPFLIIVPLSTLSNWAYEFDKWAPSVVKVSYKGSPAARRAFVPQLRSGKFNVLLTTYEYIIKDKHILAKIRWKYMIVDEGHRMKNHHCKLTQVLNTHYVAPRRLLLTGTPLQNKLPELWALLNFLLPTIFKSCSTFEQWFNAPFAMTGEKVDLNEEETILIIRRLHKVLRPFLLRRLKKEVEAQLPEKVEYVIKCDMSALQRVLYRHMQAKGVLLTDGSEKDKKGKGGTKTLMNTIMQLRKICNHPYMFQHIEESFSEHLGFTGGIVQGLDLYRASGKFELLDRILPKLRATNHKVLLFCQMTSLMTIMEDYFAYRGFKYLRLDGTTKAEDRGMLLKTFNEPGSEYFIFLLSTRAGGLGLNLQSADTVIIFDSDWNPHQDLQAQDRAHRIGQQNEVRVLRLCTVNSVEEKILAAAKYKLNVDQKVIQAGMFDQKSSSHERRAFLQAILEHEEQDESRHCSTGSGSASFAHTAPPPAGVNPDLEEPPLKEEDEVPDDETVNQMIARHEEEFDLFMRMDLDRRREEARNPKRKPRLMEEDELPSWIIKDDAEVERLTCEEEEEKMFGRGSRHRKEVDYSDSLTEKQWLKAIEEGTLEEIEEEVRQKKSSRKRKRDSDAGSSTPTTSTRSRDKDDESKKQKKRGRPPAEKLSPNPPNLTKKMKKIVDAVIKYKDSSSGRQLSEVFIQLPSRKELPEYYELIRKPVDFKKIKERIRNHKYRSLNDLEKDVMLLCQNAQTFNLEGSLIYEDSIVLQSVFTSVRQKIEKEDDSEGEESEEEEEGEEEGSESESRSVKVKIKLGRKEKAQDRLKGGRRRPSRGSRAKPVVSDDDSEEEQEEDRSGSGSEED

Take `C#Cc1ccc(CNC(=O)[C@@H]2C[C@@H](O)CN2C(=O)[C@@H](NC(=O)N2CCN(Cc3ccc(-c4cnc(N5CCN6c7cc(-c8ccccc8O)nnc7NC[C@H]6C5)nc4)cc3)CC2)C(C)(C)C)cc1` [I-269]: in assay [1], the Dmax was greater than 90% and the half-maximal degradation concentration (DC50) fell in the range of 0.01 to 0.05 µM. Besides, in assay [2], the Dmax lay within 50 to 70% and the DC50 was greater than 0.1 µM. In assay [3], the maximal degradation (Dmax) lay within 70 to 90%, the DC50 was in the range of 0.01 to 0.1 µM and the “Selectivity in MV411” value was “C (C (10-100 fold))”.

Turning to `C#Cc1ccc(CNC(=O)[C@@H]2C[C@@H](O)CN2C(=O)[C@H](NC(=O)N2CC3(CC(N4CCC(c5cnc(N6CCc7[nH]c8nnc(-c9ccccc9O)cc8c7[C@H]6C)nc5)CC4)C3)C2)C(C)(C)CCO)c(Cl)c1` (single isomer, unassigned) [I-316], in assay [1], the Dmax was less than 50% and the DC50 was greater than 0.1 µM. For the same molecule, in assay [2], the Dmax was less than 50% and the DC50 was greater than 0.1 µM. In assay [3], the Dmax was less than 50%, the DC50 was greater than 0.1 µM and the “Selectivity in MV411” value is given as “C (C (10-100 fold))”.

Regarding `C#Cc1c(F)cc(CNC(=O)[C@@H]2C[C@@H](O)CN2C(=O)[C@@H](NC(=O)N2CC3(CC(N4CCC(c5cnc(N6CCc7[nH]c8nnc(-c9ccccc9O)cc8c7[C@H]6C)nc5)CC4)C3)C2)C(C)(C)C)cc1F` [I-402], in assay [1], the Dmax was greater than 90% and the DC50 was 0.01 to 0.05 µM. In assay [2], the Dmax is greater than 90% and the DC50 is greater than 0.1 µM. Moreover, in assay [3], the Dmax lay in the range of 70 to 90%, the DC50 is 0.001 to 0.01 µM and the “Selectivity in MV411” value was “C (C (10-100 fold))”.

Turning to `C#Cc1ccc([C@H](C)NC(=O)[C@@H]2C[C@@H](O)CN2C(=O)C(c2cc(N3CCC(N4CCC(N5CCC(CN6CCN7c8cc(-c9ccccc9O)nnc8NC[C@H]7C6)CC5)CC4)CC3)no2)C(C)C)cc1` (stereo partly shown) [I-291], the Dmax in assay [1], in assay [2] and in assay [3] was greater than 90% in each case. Further, the half-maximal degradation concentration (DC50) in assay [1] lay within 0.01 to 0.05 µM; in assay [2] it was 0.01 to 0.1 µM; in assay [3], 0.001 to 0.01 µM. Moreover, the “Selectivity in MV411” value in assay [3] was “C (C (10-100 fold))”.

Take `C#Cc1ccc(CNC(=O)[C@@H]2C[C@@H](O)CN2C(=O)[C@@H](NC(=O)N2CC3(CC(N4CCC(N5CCC(N6CCc7[nH]c8nnc(-c9ccccc9O)cc8c7[C@H]6C)CC5)CC4)C3)C2)C(C)(C)C)c(F)c1` [I-181]: in assay [1], the greatest degradation seen (Dmax) is greater than 90% and the DC50 was greater than 0.1 µM. In addition, in assay [2], the Dmax is less than 50% and the half-maximal degradation concentration (DC50) was greater than 0.1 µM. In assay [3], the Dmax fell in the range of 50 to 70%, the DC50 was in the range of 0.01 to 0.1 µM and the “Selectivity in MV411” value is “B (B (>100-500 fold))”.

Consider `C#Cc1ccc(CNC(=O)[C@@H]2C[C@@H](O)CN2C(=O)[C@@H](OC(=O)N2CC3(CC(N4CCC(c5cnc(N6CCc7[nH]c8nnc(-c9ccccc9O)cc8c7[C@H]6C)nc5)CC4)C3)C2)C(C)(C)C)cc1` [I-138], for which, in assay [1], the Dmax was greater than 90% and the DC50 was less than 0.01 µM. Further, in assay [2], the Dmax was greater than 90% and the DC50 was 0.01 to 0.1 µM. In assay [3], the Dmax was greater than 90%, the DC50 was 0.001 to 0.01 µM and the “Selectivity in MV411” value is “C (C (10-100 fold))”.

Consider `C#Cc1ccc(CNC(=O)[C@@H]2C[C@@H](O)CN2C(=O)[C@@H](NC(=O)N2CC3(CC(N4CCC(c5cnc(N6CCc7[nH]c8nnc(-c9ccccc9O)cc8c7[C@H]6C)nc5)CC4)C3)C2)C(C)(C)C)c(OCCO)c1` [I-143], for which, in assay [1], the Dmax was greater than 90% and the DC50 is less than 0.01 µM. Further, in assay [2], the Dmax is greater than 90% and the DC50 fell in the range of 0.01 to 0.1 µM. Further, in assay [3], the Dmax was greater than 90%, the DC50 lay within 0.001 to 0.01 µM and the “Selectivity in MV411” value is “C (C (10-100 fold))”.

`Cc1ncsc1-c1ccc(CNC(=O)[C@@H]2C[C@@H](O)CN2C(=O)[C@@H](NC(=O)C2(F)CC2)C(C)(C)C)c(O[C@H]2CC[C@@H](N3CCC(N4CCC(c5cnc(N6CCc7[nH]c8nnc(-c9ccccc9O)cc8c7[C@@H]6C)nc5)CC4)CC3)CC2)c1` (single isomer, unassigned) [I-48]: the values for the Dmax in assay [1], in assay [2] and in assay [3] were 70 to 90%, greater than 90% and 50 to 70%, respectively. The DC50 in assay [1] is greater than 0.1 µM; in assay [2] it was greater than 0.1 µM; in assay [3], 0.01 to 0.1 µM. The “Selectivity in MV411” value in assay [3] was “C (C (10-100 fold))”.

Turning to `Cc1ncsc1-c1ccc(CNC(=O)[C@@H]2C[C@@H](O)CN2C(=O)C(c2cc(N3CC4(CCC(N5CCC(c6cnc(N7CCc8[nH]c9nnc(-c%10ccccc%10O)cc9c8[C@H]7C)nc6)CC5)CC4)C3)no2)C(C)C)cc1` (single isomer, unassigned) [I-14], in assay [1], the maximal degradation (Dmax) was in the range of 70 to 90% and the DC50 was less than 0.01 µM. In addition, in assay [2], the greatest degradation seen (Dmax) was greater than 90% and the DC50 lay in the range of 0.001 to 0.01 µM. In assay [3], the Dmax is greater than 90%, the DC50 was less than 0.001 µM and the “Selectivity in MV411” value is “D (D (<10 fold))”.

Take `C#Cc1ccc(CNC(=O)[C@@H]2C[C@@H](O)CN2C(=O)[C@@H](NC(=O)[C@H]2CC3(C2)C[C@H](N2CCC(N4CCC(N5CCN6c7cc(-c8ccccc8O)nnc7NC[C@H]6C5)CC4)CC2)C3)C(C)(C)CCO)cc1` (single isomer, unassigned) [I-364]: the figures for the Dmax in assay [1], in assay [2] and in assay [3] were 70 to 90%, less than 50% and 50 to 70%, respectively. The half-maximal degradation concentration (DC50) in assay [1] was greater than 0.1 µM; in assay [2], greater than 0.1 µM; in assay [3] it was 0.01 to 0.1 µM. Further, the “Selectivity in MV411” value in assay [3] is “B (B (>100-500 fold))”.

Regarding `Cc1ncsc1-c1ccc(CNC(=O)[C@@H]2C[C@@H](O)CN2C(=O)[C@@H](OC(=O)N2CC3(CC(N4CCN(c5cnc(N6CCN7c8cc(-c9ccccc9O)nnc8NC[C@H]7C6)nc5)CC4)C3)C2)C(C)(C)C)cc1` [I-96], in assay [1], the Dmax is greater than 90% and the 50% degradation concentration (DC50) is less than 0.01 µM. Also, in assay [2], the Dmax was greater than 90% and the DC50 lay in the range of 0.001 to 0.01 µM. Also, in assay [3], the Dmax was greater than 90%, the DC50 is less than 0.001 µM and the “Selectivity in MV411” value is “C (C (10-100 fold))”.

Take `C#Cc1ccc(CNC(=O)[C@@H]2C[C@@H](O)CN2C(=O)[C@@H](NC(=O)N2CCN(CC3CCN([C@H]4CC[C@@H](N5CCc6[nH]c7nnc(-c8ccccc8O)cc7c6[C@H]5C)CC4)CC3)CC2)C(C)(C)C)cc1` [I-203]: in assay [1], the maximal degradation (Dmax) was in the range of 70 to 90% and the DC50 was greater than 0.1 µM. In assay [2], the Dmax is less than 50% and the DC50 was greater than 0.1 µM. In assay [3], the Dmax was less than 50%, the DC50 is greater than 0.1 µM and the “Selectivity in MV411” value is on record as “C (C (10-100 fold))”.

Regarding `Cc1ncsc1-c1ccc(CNC(=O)[C@@H]2C[C@@H](O)CN2C(=O)[C@@H](NC(=O)C2(F)CC2)C(C)(C)C)c(O[C@H]2CC[C@H](N3CCC(N4CCC(c5cnc(N6CCc7[nH]c8nnc(-c9ccccc9O)cc8c7[C@@H]6C)nc5)CC4)CC3)CC2)c1` (single isomer, unassigned) [I-47], the Dmax in assay [1], in assay [2] and in assay [3] was greater than 90% throughout. The results for the DC50 in assay [1], in assay [2] and in assay [3] were greater than 0.1 µM, 0.001 to 0.01 µM and 0.001 to 0.01 µM, respectively. Besides, the “Selectivity in MV411” value in assay [3] is “D (D (<10 fold))”.

In the case of `C#Cc1ccc(CNC(=O)[C@@H]2C[C@@H](O)CN2C(=O)[C@@H](NC(=O)[C@H]2CCC3(CC2)C[C@H](N2CCC(N4CCC(N5CCN6c7cc(-c8ccccc8O)nnc7NC[C@H]6C5)CC4)CC2)C3)C(C)(C)C)c(OC)c1` (single isomer, unassigned) [I-177], in assay [1], the Dmax was greater than 90% and the DC50 was greater than 0.1 µM. In assay [2], the Dmax was 50 to 70% and the DC50 was greater than 0.1 µM. In assay [3], the maximal degradation (Dmax) lay in the range of 70 to 90%, the DC50 fell in the range of 0.01 to 0.1 µM and the “Selectivity in MV411” value was “C (C (10-100 fold))”.

Turning to `C#Cc1ccc(CNC(=O)[C@@H]2C[C@@H](O)CN2C(=O)[C@@H](NC(=O)N2CCN(CC3CCN(c4cnc(N5CCc6[nH]c7nnc(-c8ccccc8O)cc7c6[C@H]5C)nc4)CC3)CC2)C(C)(C)C)cc1` [I-159], the Dmax is greater than 90% in assay [1], 50 to 70% in assay [2] and 50 to 70% in assay [3]. Also, the DC50 was greater than 0.1 µM in assay [1], greater than 0.1 µM in assay [2] and 0.01 to 0.1 µM in assay [3]. Further, the “Selectivity in MV411” value in assay [3] is listed as “B (B (>100-500 fold))”.

As to `Cc1ncsc1-c1ccc(CNC(=O)[C@@H]2C[C@@H](O)CN2C(=O)[C@@H](NC(=O)N2CC3(CC(N4CCN(c5cnc(N6CCc7[nH]c8nnc(-c9ccccc9O)cc8c7[C@H]6C)nc5)CC4)C3)C2)C(C)(C)C)cc1` [I-82], in assay [1], the Dmax was greater than 90% and the DC50 is less than 0.01 µM. For the same molecule, in assay [2], the Dmax was in the range of 70 to 90% and the DC50 is 0.01 to 0.1 µM. Further, in assay [3], the maximal degradation (Dmax) is greater than 90%, the DC50 was 0.001 to 0.01 µM and the “Selectivity in MV411” value was “C (C (10-100 fold))”.
